# Results from patent US7964613B2 (Asahi Kasei Pharma Corporation, priority 2007, dated 2011).
# Tested on: intraocular pressure
# Assay: Rabbit intraocular pressure reduction enhancing action, Test Example 7-2 (combination use with timolol maleate)
# Format: in vivo, Japanese white rabbit
# Conditions: Table 6; 19-1 compound 0.01 weight % aqueous solution 50 μL, Timoptol 50 μL; difference relative to control group at 1, 2, 4 hours; 12 rabbits
# Experimental: As a test compound, the 19-1 compound was dissolved in physiological saline, and the solution was neutralized by addition of sodium hydroxide (pH 7.0 to 8.0) to prepare a 0.01 weight % aqueous solution (19-1 compound aqueous solution). As a drug for combination use, timolol maleate (trade name: Timoptol, Santen Pharmaceutical) was used as an adrenergic receptor β blocker, as the marketed formulation as it was.
# A Japanese white rabbit having a body weight of about 2 kg was placed in a positioner and naturalized for one week before the experiment. An opthalmologic local anesthesant (Benoxil) was administered to both eyes, and then intraocular pressure before instillation was measured by using a tonometer (Classic 30, Solan). […] The intraocular pressure thereafter was measured for each group 1, 2 and 4 hours after the second administration of the test compound, and the difference of the measured values at each measurement time for the each group and the control group was considered an intraocular pressure reduction value of each group. The largest difference of the intraocular pressure values relative to the control group among those of the measured values of the measurement times was considered the maximum intraocular pressure reduction value (max ? IOP) of each drug group.
structure (smiles),measurement,value
"N[C@H]1CCN(S(=O)(=O)c2cccc3cncc(Cl)c23)C1 [Example 19-1, (S)-3-Amino-1-(4-chloro-5-isoquinolinesulfonyl)pyrrolidine]",Max IOP (maximum intraocular pressure reduction value),4.1 mmHg
